Results from patent US6555547B1, “Method for treating a patient with neoplasia by treatment with a vinca alkaloid derivative” (Cell Pathways, Inc., priority 2000, dated 2003).
Like-named read-outs stand apart in the source and are kept apart here.

Tests used:
HT-29 cells [1] = assay: Growth inhibition assay, SRB; type: cell-based, human
[2] = biological target: T1, cGMP binding sites of GST-cGB-PDE5 fusion protein (Homo sapiens, UniProt O76074); assay: cGMP binding assay; conditions: for Competition with cGMP for binding of GST-cGB-PDE5 at high concentration: 100 μM, cGMP 2 μM
T1 construct: made in house; host or cells: E. coli BL21 (DE3)

[3] = biological target: T2, PDE Peak A (PDE5) from SW480 cells (Homo sapiens, UniProt O76074); assay: Inhibition of cGMP hydrolysis by PDE Peak A from SW480; type: biochemical
T2 construct: endogenous in cells; host or cells: SW480 colon cancer cells; DEAE-Trisacryl M fraction of the 105,000 g supernatant

[4] = test system: premalignant lesions in mouse mammary gland organ culture; assay: Mammary gland organ culture model
Excerpt: Test compounds identified by the above methods can be tested for antineoplastic activity by their ability to inhibit the incidence of pre-neoplastic lesions in a mammary gland organ culture system. This mouse mammary gland organ culture technique has been successfully used by other investigators to study the effects of known antineoplastic agents such as certain NSAIDs, retinoids, tamoxifen, selenium, and certain natural products, and is useful for validation of the screening method of the present invention.
For example, female BALB/c mice can be treated with a combination of estradiol and progesterone daily, in order to prime the glands to be responsive to hormones in vitro. The animals are sacrificed, and thoracic mammary glands are excised aseptically and incubated for ten days in growth media supplemented with insulin, prolactin, hydrocortisone, and aldosterone. DMBA (7,12-dimethylbenz(a)anthracene) is added to medium to induce the formation of premalignant lesions. […]
The extent of the area occupied by the mammary lesions can be quantitated by projecting an image of the gland onto a digitation pad. […] The space covered by each of the non-regressed structures is also outlined on the digitization pad and quantitated by the computer. […]

[5] = test system: cGMP and cAMP in HT-29 cells; assay: Cyclic nucleotide levels in HT-29 cells by radioimmunoassay; type: cell-based, human; conditions: HT-29 cells treated 30 minutes
HT-29 cells [6] = assay: Apoptosis and necrosis, morphological (acridine orange/ethidium bromide); type: cell-based, human; conditions: HT-29, treated 6 days
Excerpt: Following treatment with a compound, cultures can be assayed for apoptosis and necrosis by florescent microscopy following labeling with acridine orange and ethidium bromide. The method for measuring apoptotic cell number has previously been described by Duke & Cohen, “Morphological And Biochemical Assays Of Apoptosis,” Current Protocols In Immunology, Coligan et al., eds., 3.17.1-3.17.16 (1992), which is incorporated herein by reference.
For example, floating and attached cells can be collected by trypsinization and washed three times in PBS. Aliquots of cells can be centrifuged. The pellet can then be re-suspended in media and a dye mixture containing acridine orange and ethidium bromide prepared in PBS and mixed gently. The mixture can then be placed on a microscope slide and examined for morphological features of apoptosis.
Reference compounds and test compounds were analyzed for their novel PDE inhibitory activity in accordance with the protocols for the assay, supra. […] Apoptotic and necrotic cell death was determined previously (Duke and Cohen, In: Current Protocols in Immunology, 3.17.1-3.17.16, New York, John Wiley and Sons, 1992). […]
The apoptosis inducing activity for a series of phosphodiesterase inhibitors was determined. […] Apoptosis and necrosis were determined morphologically after acridine orange and ethidium bromide labeling in accordance with the assay described, supra.

[7] = test system: novel cGMP-specific PDE Peak B (Section IIB) from SW480 cells; assay: Inhibition of cGMP hydrolysis by novel PDE Peak B from SW480; type: biochemical, human
[8] = biological target: T3, novel cGMP-specific PDE Peak B (Section IIB) from SW480 cells (Homo sapiens, UniProt O00408); assay: as above; type: biochemical
T3 construct: IC50 Peak B (μM); native enzyme

[9] = test system: Calu-6 adenocarcinoma cell line; assay: Cell growth, alone and in combination with vinca alkaloid; type: cell-based, human; conditions: Calu-6, 1-hour exposure, 0.01 mcg/ml
Protocol: Exisulind and Compound I were analyzed using two human lung cancer cell lines; H460, a large cell carcinoma with a doubling time of 16 hours, and Calu-6, an adenocarcinoma with a doubling time of 21 hours. Exisulind and Compound I were analyzed alone and in combination with the vinca alkaloid, Navelbine™ vinorelbine. The cytotoxic agents were administered for 1 hour, while exisulind and Compound I were administered for either 1 hour or given as a continuous exposure.
Cells were plated on day 0 and allowed to attach. On day 1, the cells were exposed to one of the cytotoxic agents dissolved in media pre-warmed to 37° C. and incubated at 37° C. for 1 hour. The cells were then washed twice and re-fed pre-warned media with or without either exisulind or Compound I and incubated for one hour at 37° C. After the one-hour incubation, the cells were washed twice, re-fed, and returned to the incubator; the continuous exposure cultures were not washed and re-fed. Appropriate controls were included for each condition. […] All data points were done in triplicate and the mean graphed as a percent of control growth.
Exisulind and Compound I were first dissolved in DMSO and brought to the desired concentrations by slowly adding warm media to the drug-DMSO solution to prevent precipitation.

T3 sequence (O00408 whole entry): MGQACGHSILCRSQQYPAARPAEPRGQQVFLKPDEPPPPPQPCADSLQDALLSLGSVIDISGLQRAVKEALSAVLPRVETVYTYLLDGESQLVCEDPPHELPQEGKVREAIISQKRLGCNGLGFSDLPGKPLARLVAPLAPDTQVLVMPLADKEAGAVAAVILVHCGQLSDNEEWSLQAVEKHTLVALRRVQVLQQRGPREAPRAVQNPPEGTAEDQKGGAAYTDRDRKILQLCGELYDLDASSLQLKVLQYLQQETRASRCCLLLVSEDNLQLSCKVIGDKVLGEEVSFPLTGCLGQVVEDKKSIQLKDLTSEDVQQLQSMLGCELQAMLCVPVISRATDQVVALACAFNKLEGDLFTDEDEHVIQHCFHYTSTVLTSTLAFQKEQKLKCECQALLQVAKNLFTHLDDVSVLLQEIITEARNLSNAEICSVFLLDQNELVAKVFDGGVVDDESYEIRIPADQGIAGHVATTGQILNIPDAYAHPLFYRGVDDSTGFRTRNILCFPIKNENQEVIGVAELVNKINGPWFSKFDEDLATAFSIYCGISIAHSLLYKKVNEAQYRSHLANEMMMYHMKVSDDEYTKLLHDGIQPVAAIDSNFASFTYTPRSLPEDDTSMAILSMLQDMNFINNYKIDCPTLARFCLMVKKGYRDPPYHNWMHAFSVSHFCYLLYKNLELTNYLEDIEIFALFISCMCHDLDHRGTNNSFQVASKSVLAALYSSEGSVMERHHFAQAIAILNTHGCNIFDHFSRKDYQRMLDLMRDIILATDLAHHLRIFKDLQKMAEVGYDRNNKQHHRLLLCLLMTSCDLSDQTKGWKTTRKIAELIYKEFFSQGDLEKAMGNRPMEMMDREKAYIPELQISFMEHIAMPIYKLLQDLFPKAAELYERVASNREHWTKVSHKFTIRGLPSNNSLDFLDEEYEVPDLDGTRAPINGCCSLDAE

5-fluoro-2-methyl-1-(p-methylsulfinylbenzylidene)-3-indenylacetic acid [Sulindac sulfide]
Growth inhibition and apoptosis time course (HT-29 cells [1]; HT-29, 120 μM, viable cells by trypan blue, apoptosis morphological): capable of inhibiting tumor cell growth, and that the effect is accompanied by an increase in apoptosis
Competition with cGMP for binding of GST-cGB-PDE5 ([2]; 3H-cGMP 2 μM): do not bind to the cGMP binding sites of PDE5
Competitive (with cGMP) binding/inhibition, Peak A [3]: competitively inhibited both Peaks A and B phosphodiesterases at the same potency
Inhibition of premalignant lesions in mammary gland organ culture [4]: inactive
Increase in levels of cGMP [5]: greater than 50%
Levels of cAMP [5]: unaffected

CCCCOC1C2OP(=O)(O)OCC2OC1n1cnc2c(N)ncnc21 (stereo not shown) [2′-O-butyl-cAMP]
Competition with cGMP for binding of GST-cGB-PDE5 ([2]; 3H-cGMP 2 μM): did not compete with cGMP in binding

CCCCOC1C2OP(=O)(O)OCC2OC1n1cnc2c(=O)[nH]c(N)nc21 (stereo not shown) [2′-O-butyl-cGMP]
Competition with cGMP for binding of GST-cGB-PDE5 ([2]; 3H-cGMP 2 μM): did not compete with cGMP in binding

COCc1nc2c([nH]1)c(=O)n(C)c(=O)n2CC(C)C [8-methoxy-IBMX]
IC50 (HT-29 cells [1]; HT-29, 6 days, SRB assay): > 200 µM
% Apoptosis (HT-29 cells [6]): 2%
% Necrosis (HT-29 cells [6]): 1%

Nc1nc2c(nc(Br)n2[C@@H]2O[C@@H]3COP(=O)(O)O[C@H]3[C@H]2O)c(=O)[nH]1 [Compound 8-bromo-cGMP, 8-bromo-cGMP]
Competition with cGMP for binding of GST-cGB-PDE5 at high concentration [2]: can partially compete with cGMP

COc1cc(C=C2C(C)=C(CC(=O)O)c3cc(F)ccc32)cc(OC)c1OC [Compound B, (Z)-5-Fluoro-2-methyl-1-(3,4,5-trimethoxybenzylidene)-3-acetic acid]
Competition with cGMP for binding of GST-cGB-PDE5 ([2]; 3H-cGMP 2 μM): do not bind to the cGMP binding sites of PDE5

COc1cc(/C=C2/C(C)=C(CC(=O)NCc3ccccc3)c3cc(F)ccc32)cc(OC)c1OC [Compound E, (Z)-5-Fluoro-2-methyl-1-(3,4,5-trimethoxybenzylidene)-3-indenylacetamide, N-benzyl]
Competition with cGMP for binding of GST-cGB-PDE5 ([2]; 3H-cGMP 2 μM): do not bind to the cGMP binding sites of PDE5
Competitive (with cGMP) binding/inhibition, Peak A [3]: does competitively (with cGMP) bind to PDE 5 (i.e., Peak A)
Ratio (IC50 PeakA/Peak B) [7]: 1.0
Competitive (with cGMP) binding/inhibition, Peak B [8]: also competitively (with cGMP) binds to PDE Peak B
IC50 [8]: 0.37 µM

Nc1ncnc2c1ncn2[C@@H]1O[C@@H]2COP(=O)(O)O[C@H]2[C@H]1O [Cyclic AMP]
Competition with cGMP for binding of GST-cGB-PDE5 [2]: did not compete with cGMP in binding

O=c1[nH]cnc2c1ncn2[C@@H]1O[C@@H]2COP(=O)(O)O[C@H]2[C@H]1O [Cyclic IMP]
Competition with cGMP for binding of GST-cGB-PDE5 at high concentration [2]: can partially compete with cGMP

CC1(C)C(=O)Nc2ccc(C3=NNC(=O)CC3)cc21 [Indolidan]
Ratio (IC50 PeakA/Peak B) [7]: <0.31
IC50 [8]: > 100 µM

COc1ccc(C2CNC(=O)C2)cc1OC1CCCC1 (stereo not shown) [Rolipram]
Levels of cAMP [5]: increased cAMP
IC50 [8]: > 100 µM

CCCc1nn(C)c2c(=O)[nH]c(-c3cc(S(=O)(=O)N4CCN(C)CC4)ccc3OCC)nc12 [Sildenafil, sildenafil]
Inhibition of Peak A activity [3]: inhibited activity of Peak A

CCOC(=O)C1=C[C@]2(CC)CCCN3CCc4c(n1c1ccccc41)[C@@H]32 [Vinpocetine]
IC50 [8]: > 100 µM

CCCOc1ccccc1-c1nc2nn[nH]c2c(=O)[nH]1 [Zaprinast, zaprinast]
Competition with cGMP for binding of GST-cGB-PDE5 ([2]; 3H-cGMP 2 μM): do not bind to the cGMP binding sites of PDE5

Nc1ccn([C@@H]2O[C@@H]3COP(=O)(O)O[C@H]3[C@H]2O)c(=O)n1 [cCMP, cyclic CMP]
Competition with cGMP for binding of GST-cGB-PDE5 ([2]; 3H-cGMP 2 μM): did not compete with cGMP in binding

O=c1ccn([C@@H]2O[C@@H]3COP(=O)(O)O[C@H]3[C@H]2O)c(=O)[nH]1 [cUMP, cyclic UMP]
Competition with cGMP for binding of GST-cGB-PDE5 ([2]; 3H-cGMP 2 μM): did not compete with cGMP in binding

CCC1=C[C@@H]2CN(C1)Cc1c([nH]c3ccccc13)[C@@](C(=O)OC)(c1cc3c(cc1OC)N(C)[C@H]1[C@@](O)(C(=O)OC)[C@H](OC(C)=O)[C@]4(CC)C=CCN5CC[C@]31[C@@H]54)C2 [vinca alkaloid, vinorelbine]
% of control growth [9]: 52%
activity at 0.01 µg/mL ([9]; Homo sapiens, Calu-6, 1 h, read-out: % of control growth): 56%
